Measurements taken from PubChem BioAssay (NCI).
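A five-concentration, 48-hour dose response in 96-well plates underlies each endpoint, interpolated linearly between surrounding concentrations. Definition used: TGI = concentration required for complete inhibition of growth.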

What was measured:
Assay in all cases: NCI anticancer screen, dose series, 48 h
786-0 renal = test system: 786-0 renal
A498 renal = test system: A498 renal
A549 NSCLC = test system: A549 NSCLC
ACHN renal = test system: ACHN renal
CAKI-1 renal = test system: CAKI-1 renal
COLO 205 colon = test system: COLO 205 colon
DLD-1 colon = test system: DLD-1 colon
DMS 114 small cell lung = test system: DMS 114 small cell lung
DMS 273 small cell lung = test system: DMS 273 small cell lung
EKVX NSCLC = test system: EKVX NSCLC
HCC-2998 colon = test system: HCC-2998 colon
HCT-116 colon = test system: HCT-116 colon
HCT-15 colon = test system: HCT-15 colon
HL-60(TB) leukemia = test system: HL-60(TB) leukemia
HOP-18 NSCLC = test system: HOP-18 NSCLC
HOP-62 NSCLC = test system: HOP-62 NSCLC
HT29 colon = test system: HT29 colon
IGROV1 ovarian = test system: IGROV1 ovarian
K-562 leukemia = test system: K-562 leukemia
KM12 colon = test system: KM12 colon
KM20L2 colon = test system: KM20L2 colon
LOX IMVI melanoma = test system: LOX IMVI melanoma
LXFL 529 NSCLC = test system: LXFL 529 NSCLC
M14 melanoma = test system: M14 melanoma
M19-MEL melanoma = test system: M19-MEL melanoma
MOLT-4 leukemia = test system: MOLT-4 leukemia
NCI-H226 lung = test system: NCI-H226 lung
NCI-H23 lung = test system: NCI-H23 lung
NCI-H460 lung = test system: NCI-H460 lung
NCI-H522 lung = test system: NCI-H522 lung
OVCAR-3 ovarian = test system: OVCAR-3 ovarian
OVCAR-4 ovarian = test system: OVCAR-4 ovarian
OVCAR-5 ovarian = test system: OVCAR-5 ovarian
RPMI-8226 leukemia = test system: RPMI-8226 leukemia
SF-268 CNS = test system: SF-268 CNS
SF-539 CNS = test system: SF-539 CNS
SK-MEL-2 melanoma = test system: SK-MEL-2 melanoma
SK-MEL-28 melanoma = test system: SK-MEL-28 melanoma
SK-MEL-5 melanoma = test system: SK-MEL-5 melanoma
SK-OV-3 ovarian = test system: SK-OV-3 ovarian
SN12C renal = test system: SN12C renal
SNB-19 CNS = test system: SNB-19 CNS
SNB-75 CNS = test system: SNB-75 CNS
SNB-78 CNS = test system: SNB-78 CNS
SR leukemia = test system: SR leukemia
SW-620 colon = test system: SW-620 colon
TK-10 renal = test system: TK-10 renal
U251 CNS = test system: U251 CNS
UACC-62 melanoma = test system: UACC-62 melanoma
UO-31 renal = test system: UO-31 renal
CCRF-CEM leukemia = test system: CCRF-CEM leukemia
HOP-92 NSCLC = test system: HOP-92 NSCLC
RXF 393 renal = test system: RXF 393 renal

Measured: TGI

COC(=O)c1c/c(=N\NC(=O)CC(=O)Nc2ccccc2OC)c2ccccc2o1
> 100 µM: 786-0 renal | A498 renal | A549 NSCLC | ACHN renal | CAKI-1 renal | COLO 205 colon | DLD-1 colon | DMS 114 small cell lung | DMS 273 small cell lung | EKVX NSCLC | HCC-2998 colon | HCT-116 colon | HCT-15 colon | HL-60(TB) leukemia | HOP-18 NSCLC | HOP-62 NSCLC | HT29 colon | IGROV1 ovarian | K-562 leukemia | KM12 colon | KM20L2 colon | LOX IMVI melanoma | LXFL 529 NSCLC | M14 melanoma | M19-MEL melanoma | MOLT-4 leukemia | NCI-H226 lung | NCI-H23 lung | NCI-H460 lung | NCI-H522 lung | OVCAR-3 ovarian | OVCAR-4 ovarian | OVCAR-5 ovarian | RPMI-8226 leukemia | SF-268 CNS | SF-539 CNS | SK-MEL-2 melanoma | SK-MEL-28 melanoma | SK-MEL-5 melanoma | SK-OV-3 ovarian | SN12C renal | SNB-19 CNS | SNB-75 CNS | SNB-78 CNS | SR leukemia | SW-620 colon | TK-10 renal | U251 CNS | UACC-62 melanoma | UO-31 renal

COC(=O)CN1CCSC1=NC#N
> 100 µM: A498 renal | A549 NSCLC | CCRF-CEM leukemia | DMS 273 small cell lung | EKVX NSCLC | HL-60(TB) leukemia | HOP-62 NSCLC | HOP-92 NSCLC | HT29 colon | IGROV1 ovarian | K-562 leukemia | KM12 colon | M14 melanoma | MOLT-4 leukemia | NCI-H226 lung | NCI-H23 lung | NCI-H460 lung | NCI-H522 lung | OVCAR-5 ovarian | RXF 393 renal | SF-268 CNS | SK-MEL-28 melanoma | SK-OV-3 ovarian | SNB-19 CNS | SNB-78 CNS | SR leukemia | TK-10 renal | U251 CNS | UACC-62 melanoma | UO-31 renal
